Calls of active or inactive are those of the source. The rule behind the calls is not given here.
Tested on: Nakaseomyces glabratus
Assay: Antimicrobial activity against Candida glabrata assessed as reversal of azole resistance after 24 to 48 hrs
Type: functional, organism-based

SMILES | Activity
C[C@H]1[C@H](C)CC[C@]2(C(=O)O)CC[C@]3(C)C(=CC[C@@H]4[C@@]5(C)CC[C@H](O)C(C)(C)[C@@H]5CC[C@]43C)[C@H]12 | inactive
C/C(=C/CC[C@@H](C)[C@H]1CC[C@@]2(C)[C@@H]3CC[C@H]4C(C)(C)[C@@H](O)[C@H](O)C[C@@]45C[C@@]35CC[C@]12C)CO | inactive
